Reference: patent US20090263381A1, “COMBINATION OF DEHYDROEPIANDROSTERONE OR DEHYDROEPIANDROSTERONE-SULFATE WITH AN ANTI-IGE ANTIBODY FOR TREATMENT OF ASTHMA OR CHRONIC OBSTRUCTIVE PULMONARY DISEASE” (priority 2003, published 2009)
Values joined by “and” are separate entries in the source; they are usually repeats but may differ in a detail not shown here. Equal entries are not always repeated. Where two headings read alike, the source gives them in different places.

Key:
Intracellular adenosine = experiment: In vivo effect on adenosine levels in various rat tissues; design: species or system Fischer 344 rats
Protocol: Folinic acid (50 mg/kg) was administered intraperitoneally once daily for fourteen days. […] Hearts were removed from animals and flash frozen in liquid nitrogen with 10 s of death. Liver and lungs were removed en bloc and flash frozen with […]. Brain tissue was subsequently dissected.

[1] = Nakagawa et al. 1981, 1982; cited from earlier work
[2] = Particle size of jet-milled and spray-dried anhydrous DHEA-S (Malvern Mastersizer X, light microscope); format: physicochemical; conditions: spray dried material, two batches
Protocol: Approximately 1 g sample was passed through the jet mill, once, and approximately 2 g sample were passed through the jet mill twice. […] The resulting solution was sonicated for 3 minutes and appeared fully dispersed. The dispersed solutions were tested on a Malvern Mastersizer X with a small volume sampler (SVS) attachment. One sample of dispersed material was tested 5 times. The median particle size or D (v, 0.5) of unmilled material was 52.56 μm and the % RSD (relative standard deviation) was 7.61 for the 5 values. The D (v, 0.5) for a single pass through the jet mill was 3.90 μm and the % RSD was 1.27, and the D (v, 0.5) from a double pass through the jet mill 3.25 μm and the % RSD was 3.10.
The solution was spray-dried with a B-191 Mini Spray-Drier (Buchi, Flawil, Switzerland) with an inlet temperature of 55° C., outlet temperature of 40° C., at 100% aspirator, at 10% pump, nitrogen flow at 40 mbar and spray flow at 600 units. The spray-dried product was suspended in hexane and Span85 surfactant added to reduce agglomeration. The dispersions were sonicated with cooling for 3-5 minutes for complete dispersion and the dispersed solutions tested on a Malvern Mastersizer X with a Small Volume Sampler (SVS) attachment. […] Visual examination by light microscope of the dispersions of each batch confirmed that spray drying produced small respirable size particles. […]

HT-29 SF cells [3] = experiment: DHEA effect on cell growth (Coulter counter); format: cell-based, human
HT-29 SF cells [4] = experiment: DHEA effect on cell cycle distribution (flow cytometry); format: cell-based, human; conditions: 25, 50 or 200 μM DHEA; 24, 48, 72 hours
Protocol: Cells were plated at 10^5/60-mm dish in duplicate. […] Cultures were trypsinized following 0, 24, 48, or 74 hours and fixed and stained using a modification of a procedure of Bauer et al., Cancer Res. 46, 3173-3178 (1986). Briefly, cells were collected by centrifugation and resuspended in cold phosphate-buffered saline. Cells were fixed in 70% ethanol, washed, and resuspended in phosphate-buffered saline.
After 24, 48, and 72 hours, cells were harvested, fixed in ethanol, and stained with propidium iodide, and the DNA content/cell was determined by flow cytometric analysis. The percentage of cells in G1, S, and G2M phases was calculated using the Cellfit cell cycle analysis program. S phase is marked by a quadrangle for clarity. Representative histograms from duplicate determinations are shown. The experiment was repeated three times.

HT-29 SF cells [5] = experiment: Reversal of DHEA effect on cell cycle by medium supplements; format: cell-based, human; conditions: 25 FM DHEA, with increasing exposure time
[6] = Solid-state stability with and without lactose (DHEA formation by HPLC); format: physicochemical; conditions: 1 week at 50° C., neat and lactose blend
Description: These conditions were used to stress the formulation in order to predict its long-term stability results. […] The primary degradant is DHEA. […] The materials on accelerated storage become more cohesive with time as evidenced by clumping during sample weighing for chemical analysis. […] This is a considerable disadvantage since lactose is the most commonly used inhalation excipient for dry powder formulations. Continuing with the virtually anhydrous form would mean limiting formulations to neat powder or undertaking more comprehensive safety studies to use a novel excipient.

[7] = for solubility: range of triplicates
Description: The suspensions are then filtered through a 0.2 micron syringe filter and immediately diluted for HPLC analysis. To prepare refrigerated samples, the syringes and filters are stored in the refrigerator for at least one hour before use.

[8] = 0.12% NaCl (20 mM Cl^-)
Protocol: The nebulizer is filled with 5 mL of solution and nebulization is continued until the output became visually insignificant (4½ to 5 min.). Nebulizer solutions are tested using a California Instruments AS-6 6-stage impactor with a USP throat. The impactor is run at 30 L/min for 8 s to collect a sample following one minute of nebulization time. At all other times during the experiment, the aerosol is drawn through the by-pass collector at approximately 33 L/min. The collection apparatus, nebulizer, and impactor are rinsed with mobile phase and assayed by HPLC. […] This volume is selected as the practical upper limit for use in a clinical study.

[9] = Short-term solution stability of DHEA-S formulation; format: physicochemical
Protocol: Aliquots of this solution are filled into clear glass vials and stored at RT (24-26° C.) and at 40° C. The samples are checked daily for DHEA-S content, DHEA content, and appearance. For each time point, duplicate samples are withdrawn and diluted from each vial. […] The study is stopped on day three. […] The solution should easily be stable for the day of reconstitution in a clinical trial. The following section describes the aerosol properties of this formulation.

late asthmatic response = experiment: Late asthmatic response in patients dosed with DHEA-S; format: in vivo; conditions: patients after five days of dosing
[10] = HPLC analysis of drug degradation during jet milling; format: physicochemical; conditions: HPLC peak area versus unmilled standard; single-pass and double-pass
Protocol: Two vials (A; single-pass; 150 mg) and (B double-pass; 600 mg) of the micronized drug were available for determining drug degradation during jet milling micronization. […] The chromatographic peak area for the HPLC assay of the unmilled drug standard solution (10 mg/ml) gave a value of 23,427. […] The chromatographic peak areas for vials A and B were 11,979 and 11,677, respectively.

Nc1nc(=O)c2c([nH]1)NCC(CNc1ccc(C(=O)N[C@@H](CCC(=O)O)C(=O)O)cc1)N2C=O (mixture of isomers) [Folinic Acid, Folinic acid]
effect on adenosine levels when administered alone (Intracellular adenosine; rats, folinic acid 50 mg/kg alone, all organs studied): increase in adenosine levels for all organs studied | effect of coadministration on steroid-mediated adenosine depletion (Intracellular adenosine; rats, folinic acid 50 mg/kg coadministered with DHEA or methyltestosterone): completely abrogated steroid-mediated adenosine depletion

C[C@]12CC[C@H](OS(=O)(=O)[O-])CC1=CC[C@@H]1[C@@H]2CC[C@]2(C)C(=O)CC[C@@H]12.[Na+] [Anhydrous DHEA-S]
solid-state properties (in words) [1]: low crystallinity and is very hygroscopic | mean particle size (Malvern Mastersizer X) [2]: 5.07±0.70 μm and 6.66±0.91 μm | mean particle size (light microscope) [2]: 2.4 μm and 2.0 μm

C[C@]12CC[C@H](O)CC1=CC[C@@H]1[C@@H]2CC[C@]2(C)C(=O)CC[C@@H]12 [DHEA, 3β-hydroxyandrost-5-en-17-one]
effect on growth of HT-29 cells (in words) (HT-29 SF cells [3]; 0-200 μM, 0-72 hours): time- and dose-dependent inhibition of growth | exposure time after which cell number was reduced compared to controls (HT-29 SF cells [3]; 12.5 μM DHEA): 72 h | exposure time after which cell number was reduced compared to controls (HT-29 SF cells [3]; 25 μM DHEA): 48 h | exposure time after which cell number was reduced compared to controls (HT-29 SF cells [3]; 50 μM DHEA): 48 h | exposure time after which cell number was reduced compared to controls (HT-29 SF cells [3]; 200 μM DHEA): 24 h | cell cycle effect (overall, in words) (HT-29 SF cells [4]): G1 block in HT-29 SF cells in a time- and dose-dependent manner | effect on tissue adenosine (in words) (Intracellular adenosine; rat, in vivo): multi-organ depletion of adenosine | proportion of cells in S phase (HT-29 SF cells [5]): progressively reduced the proportion of cells in S phase

CC12CCC3C(CC=C4CC(OS(=O)(=O)[O-])CCC43C)C1CCC2=O.[Na+] (stereo not drawn) [DHEA-S dihydrate]
DHEA generated on storage (in words) [6]: virtually no DHEA generated

sodium dehydroepiandrostenone sulfate [DHEA-S]
solubility ([7]; 0.9% NaCl, refrigerated (7-8° C.)): 1100 to 1300 µg/mL | Ksp ([7]; 15° C., interpolated versus reciprocal of absolute temperature): ~1316 mM^2 | equilibrium constant Ksp ([7]; refrigerated (7-8° C.), slope of solubility versus reciprocal sodium cation concentration): 665 mM^2 | solubility ([7]; ~25° C., 0% NaCl): 16500 to 17400 µg/mL | solid-state properties (in words) [1]: most stable and crystalline as the dihydrate form | highest solution concentration that will not precipitate during nebulization [8]: approximately 7.5 mg/mL | stability of nebulizer formulation ([9]; 7.5 mg/mL of DHEA-S in 0.12% NaCl): stable for at least one day at RT | appearance of solution on storage ([9]; 10 mg/mL in 0.12% NaCl, 40° C. (accelerated condition)): became cloudy after two days of storage | reduction of the late asthmatic response (late asthmatic response): 33% | degradation of the drug during jet milling micronization [10]: no detectable degradation
